Measured values: US11903397B2, “Hay preservative and methods for preservation of hay” (DANSTAR FERMENT AG, priority 2014, dated 2024)
Marks after values point to notes of the source that are not given here.

Columns and labels:
[1] = In situ ruminal digestion parameters of alfalfa hay (Example 2); assay type: in vivo, cows; settings: hay 180 days after baling
Procedure: Core samples were collected on day 180 and evaluated for nutritional quality using in situ and in vitro methods.
In situ experiments were conducted to assess the effect of hay preservatives on the rate and extent of digestion of hay samples collected 180 days after baling. Three cows fitted with ruminal cannulas and fed a standard feedlot backgrounding diet were used. Approximately 4 g of each composite sample from each bale (replicate) per treatment was weighed into Dacron bags and incubated in triplicate in each cow for 0, 2, 6, 12, 24, 48, 72, 96, and 120 h. Bags were retrieved after incubation and processed according to LRC SOP to determine in situ ruminal DM and NDF disappearance.

[2] = system: total bacteria (non-fastidious bacteria growing on nutrient agar); assay: Enumeration of total bacteria on hay (Example 1)
Procedure: (§1) Two trial bales were made to determine time to complete application of the additive on one bale, weight of the bale as well as a more accurate measure of moisture content of the baled material. Bale moisture was determined using a hay probe. […] The application rate of P. anomala was 10^11 CFU in 1 L per ton of hay. The enzyme having a chitinase activity was applied at a rate of 1.5 g (suspended in 1 L of water) per ton of hay, corresponding to about 6 U per ton of hay. […] The negative control was water, and was applied at a rate of 1 L per ton of hay. […] Five replicate bales were made for each treatment. Samples of the P. anomala were taken after each application to verify the viability and numbers of the organism. […]
(§2) Chemical and microbiological analyses were conducted on hay samples collected from six different sections of the field and on composite core samples obtained from four different locations on each bale on day 1, 90, and 180 of storage. […] Dry matter (DM), organic matter (OM) and crude protein (CP) were determined according to AOAC (1990) procedures, and neutral detergent fibre (NDF), acid detergent fibre (ADF), and acid detergent insoluble nitrogen (ADIN) as described by Van Soest et al., (1991. Methods for dietary fiber, neutral detergent and non-starch polysaccharides in relation to animal nutrition. J. Dairy Sci. 74: 3583-3597.).

yeasts [3] = assay: Enumeration of yeasts on hay (Example 1)
Procedure: as §1, §2

yeasts [4] = assay: Microbial counts on alfalfa hay: yeast (Example 2)
Source text: (§3) The application rate of the combination of P. anomala in combination with the enzyme having a chitinase activity was respectively 10^11 CFU and 1.5 g in 1 L of water per ton of hay. Accordingly, the application rate of the combination of P. pentosaceus in combination with the enzyme having a chitinase activity 10^11 CFU and 1.5 g in 1 L of water per ton of hay. […] The negative control was water, and was applied at a rate of 1 L per ton of hay. Five large round bales of about 800 kg were made in accordance with Example 1 for each treatment on the same day. Core samples from bales across all treatments were collected at day 0, 90 and 180 after baling to analyze their nutritional value, fermentation product and microbial changes.
(§4) Core samples collected on day 0 and 90, 180 after baling were subjected to microbiological and chemical analysis. Microbiological analysis was conducted to enumerate, isolate and characterize the microorganisms (total bacteria, yeasts and moulds) on appropriate plates through serial dilution.

[5] = In situ NDF disappearance of hay in the rumen (Example 1); assay type: in vivo, Jersey cows; settings: fitted equation; day 180 hay
Procedure: (§5) In situ rate and extent of DM and NDF disappearance of the day 180 hay samples were determined in three cows fitted with ruminal cannulas and fed a standard feedlot backgrounding diet consisting of 50% timothy hay plus 50% barley silage (DM basis). Subsamples of the day 180 core samples obtained from bales treated with the same preservative were composited and ground to pass through a 4 mm screen. Approximately 4 g of each composite sample was weighed into Dacron bags and incubated in triplicate in each cow for 0, 2, 6, 12, 24, 48, 72, 96, and 120 h. Bags were made of monofilament polyester mesh (53 μm pore size, 5 cm×20 cm, Ankom, Fairport, New York). Cows were given two weeks to adapt to their diets before starting incubations. Immediately after incubation, bags were rinsed under cold tap water until all the rumen contents on the outside of the bags had been removed. Bags were washed in a domestic washing machine in cold water for three minutes using the delicate washing cycle without detergent and spin cycle. The washing procedure was repeated once. […] The residues from triplicate bags of the same treatment incubated in the same cow were pooled and ground to pass through a 1 mm screen before being analyzed for NDF as per the method stated above. Percentage disappearance of DM and NDF were calculated from the proportion remaining in the bags after each incubation time. […]

[6] = Temperature stability of alfalfa hay bales (Example 2, FIG. 2, FIG. 3)
Source text: as §3
Temperature of individual bales was monitored by continuously measuring the interior temperature throughout the storage period with three (3) Dallas Thermochron iButtons (Embedded Data Systems, Lawrenceburg, KY) inserted in the interior of each bale immediately after harvest (illustrated in pictures). The temperature was recorded at 4 hours intervals for 10 weeks.

[7] = Quality evaluation of hay (color, odor, grade) after 180 days (Example 1); design: key to GRADE (overall evaluation by examiner): VP: very poor; P: poor; A: average; G: good; VG: very good
Source text: All bales were opened on day 180 and their quality assessed based on the Maryland Cooperative Extension Fact Sheet #644.
Temperature stability of the bales was monitored by continuously measuring the interior temperature of each bale with three Dallas Thermochron iButtons (Embedded Data Systems, Lawrenceburg, KY) that were inserted in the core holes the following morning after baling. The iButtons were configured to record temperatures every hour during the first 60 days of the storage period. […] Bales were opened and visually scored for extent of spoilage and mold at the end of the storage period (180 d) based on the Maryland Cooperative Extension Fact Sheet #644 ‘Evaluating Hay Quality’ (http://www.extension.umd.edu/publications/pdfs/fs644. pdf).

molds = assay: Enumeration of molds on hay (Example 1)
Procedure: as §1, §2

[8] = In vitro digestibility and gas production of alfalfa hay in mixed rumen fluid (Example 2); design: species or system cows; settings: 180 day hay
Procedure: In vitro experiment was also conducted to assess the effect of microbial inoculants on gas production and kinetics from 180 day hay samples. Two runs by mixed rumen fluid from three cows fitted with ruminal cannulas and fed a standard feedlot backgrounding diet were conducted. Approximately 0.5 g of each composite sample of 180d hay per treatment was weighed into vial and incubated in triplicate in each run and gas were measured for 3, 6, 9, 12, 24 and 48 h. Vials were retrieved after incubation and processed according to LRC SOP to determine in vitro ruminal DM disappearance, gas production, ammonia and VFA.

moulds = assay: Microbial counts on alfalfa hay: mold (Example 2)
Source text: as §3, §4

[9] = system: lactic acid producing bacteria (LAB); assay: Enumeration of lactic acid producing bacteria on hay (Example 1)
Procedure: as §1, §2

total bacteria = assay: Microbial counts on alfalfa hay: total bacteria (Example 2)
Source text: as §3, §4

[10] = In situ DM disappearance of hay in the rumen (Example 1); assay type: in vivo, Jersey cows; settings: fitted equation, day 180 hay
Procedure: as §5

[11] = hay 90 days after treatment at baling
[12] = hay 180 day post treatment at baling
[13] = day 0, unit printed only at total bacteria (log cfu/g DM)
[14] = mean of bales, stored for 180 days

SMILES: CCC(=O)O [BPA, Propionic Acid]
- a = the rapidly degradable fraction [1]: 23.64^c
- b = the slowly degradable fraction [1]: 51.69^a
- c = the rate at which b is degraded [1]: 0.04^c /h
- lag = lag time [1]: 1.70^c h
- TB (non-fastidious bacteria growing on nutrient agar) [2, 11]: 6.10 cfu log10
- NA [2, 12]: 7.23 cfu log10
- YEAST (yeasts [3]; [11]): 5.38 cfu log10
- YEAST (yeasts [3]; [12]): 4.67^b cfu log10
- YEAST count (yeasts [4]; [13]): 5.49
- YEAST count (yeasts [4]; day 90): 6.22
- YEAST count (yeasts [4]; day 180): 4.89
- NDF disappearance kinetics: Lag [5]: 2.87^ab h
- NDF disappearance kinetics: c (fractional rate of disappearance of fraction b) [5]: 0.069 h⁻¹
- average interior bale temperature (in words) ([6]; 60 day period post baling, FIG. 2): highest mean temperature over time
- time spent above 40° C. (in words) ([6]; storage 2012, FIG. 3): longest time above 40 °C
- hay quality by visual and sensory assessment (in words) ([7]; bales opened on day 180): poorest quality
- COLOR score, Mean [7, 14]: 8.8 points
- ODOR score, Mean [7, 14]: 6.8 points
- OVERALL score, Mean [7, 14]: 15.6
- GRADE (overall evaluation by examiner) ([7]; single bales (Bale # 1-5), stored for 180 days): P and VP
- MOLD (molds; [11]): 4.77 cfu log10
- MOLD (molds; [12]): 6.24 cfu log10
- c = Fractional gas production rate fermentation rate [8]: 6.6^c mL h^−1
- lag = lag time [8]: 0.48^a h
- MOLD count (moulds; [13]): 4.66
- MOLD count (moulds; day 90): 5.91
- LAB (bacteria growing on MRS presumed to be Lactobacilli) [9, 11]: 4.88^c cfu log10
- MRS [9, 12]: 6.28 cfu log10
- Total bacteria (total bacteria; day 0): 6.34 log cfu/g DM
- Total bacteria (total bacteria; day 90): 8.49^a log cfu/g DM
- Total bacteria (total bacteria; day 180): 8.25^a log cfu/g DM
- DM disappearance kinetics: c (fractional rate of disappearance of fraction b) [10]: 0.083^c h^−1
- DM disappearance kinetics: c (fractional rate of disappearance of fraction b) ([10]; listed as propionic acid): 0.083 h⁻¹
